From patent US20230234920A1, “Azirine Containing Compounds as Anti-Angiogenesis Agents and a Process for the Preparation Thereof” (COUNCIL OF SCIENTIFIC & INDUSTRIAL RESEARCH, priority 2020, published 2023)
pIC50: −log10 of the molar value.

What was measured:
[1] = system: endothelial cell; assay: Protein angiogenesis array; type: cell-based; settings: 260 nM
Experimental: (A) Serum-starved HUVECs were treated with control (0.1% DMSO), sunitinib and Compound 1 at a given concentrations and then incubated for 6 h. The expression level of phospho-VEGFR2 and GAPDH (housekeeping protein) was analyzed by immunoblotting. (B) Blots were quantified with Image-J software and the bar graphs represent the relative density of phospho-VEGFR2 normalized with GAPDH and the data are represented as mean±SEM with significant difference compared with control at *p<0.05. (D) Protein angiogenesis array showing up-regulation of anti-angiogenic protein and down-regulation of pro-angiogenic proteins on endothelial cell treated with Compound 1 at 260 nM.

[2] = system: HUVECs; assay: Capillary-like tube formation assay (tubulogenesis); type: cell-based, human
How it was run: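 HUVECs seeded on Matrigel (regular or reduced growth factor) in incomplete ECM basal medium, treated with compound for 6 h; VEGF 50 ng/mL positive and sunitinib 50 nM negative controls. Calcein-AM-stained tubules imaged at 10× and tubule length expressed as % of 0.1% DMSO vehicle.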

[3] = system: HUVECs; assay: 3D angiogenesis assay (cytodex beads in fibrin matrix); type: cell-based, human
Experimental: (A) ECs were seeded on fibrinogen matrix and were treated with sunitinib and compound 1 at indicated concentrations. Post 5 days of incubation pictures were taken at 10× using inverted microscope. (B) Tube length was quantified using Leica QWin software and graph was plotted taking control (0.01% DMSO) treated cells. Data are represented as mean±SEM with significant difference from control at *p<0.05, **p<0.01 and ***p<0.001.
Anti-angiogenic effect of Compound 1 was further validated by 3D angiogenesis assay (FIG. 5).
Endothelial cells (ECs) were trypsinized and then coated on cytodex beads at the rate of 1500 cells per bead in 5% DMEM medium at 37° C. for 4 h by rotating it gently on IP rotor. Fibrinogen (2 mg/mL) and Aprotonin (40 U/μL) were added to the ECs coated beads and this was subsequently added to the 96 well plate pre-coated with […] (10 U/μL) and incubated for 15 min. Vehicle control in 2.5% DMEM media with different doses of Compound 1 (500 nM, 250 nM, 125 nM and 75 nM) were used to observe the anti-angiogenic effect of Compound 1 on 3D angiogenesis pattern. Post 3 days of incubation the results were observed and photographs were taken under inverted microscope (Olympus, Centre Valley, Pa., USA) and relative tubule lengths were measured using Leica Q-Win software version 3.5.1. (Leica Microsystems, Switzerland).

For CCOC(=O)C1N=C1CCc1ccc(OC)cc1 (racemic) [Compound 1, Ethyl 3-(4-methoxyphenethyl)-2H-azirine-2-carboxylate], the “expression of anti-angiogenic and angiogenic proteins” value [1] was “significantly increased the protein expression of anti-angiogenic proteins and decreased the expression of angiogenic proteins”, the “anti-angiogenic activity on primary tubulogenesis screening” value [2] was 75 nM and the tubule formation ([2]; 25 nM, 6 h) was “complete angiogenesis”. For the same compound, the “tubule formation as compared to control” value ([2]; 75 nM, 6 h) was 50%, the tubule formation ([2]; 100 nM combined with sunitinib at 20 nM, 6 h) was “approximately 15%” and the tubule formation ([2]; 250 nM till 125 nM, 6 h) was “light increase in the tubule formation”. For the same compound, the tubulogenesis inhibition ([2]; 10 μM till 500 nM, 6 h) was “complete tubulogenesis inhibition”, the pIC50 ([2]; Homo sapiens, HUVEC, endothelial tubule network assay, anti-angiogenic activity, read-out: IC50 value) was 7.12 and the remarks ([2]; remark on IC50 versus sunitinib) was “comparable to sunitinib”. For the same compound, the “toxic effect on the cells” value ([2]; till 500 nM, 6 h) was “no toxic effect”, the tubule formation ([3]; 75 nM) was 100% and the “tubulogenesis in 3D angiogenesis” value ([3]; 500 nM, 250 nM, 125 nM and 75 nM vs control) was “tubulogenesis inhibitory effect”.
